In patent US20230416205A1, “COMPOUNDS, COMPOSITIONS, AND METHODS” (Denali Therapeutics Inc, priority 2020, published 2023):
Like-named read-outs stand apart in the source and are kept apart here.

Tested on: NLRP3
Experiment: IL-1β secretion assay in PMA-differentiated, LPS/nigericin-stimulated THP-1 cells (384-well, ELISA read-out)
Format: cell-based, human
Experimental: Compounds as provided herein were tested in the following assay. Cell culture medium employed contained RPMI 1640 medium (89%), FBS (10%), Pen/Strep (1%), and 2-mercaptoethanol (0.05 mM). Freezing medium was made up of 90% FBS and 10% DMSO. THP-1 cells were removed from the liquid nitrogen and placed into a 37° C. water bath to thaw, until signs of ice dissipated. The cells were then added to 9 mL of warm cell culture medium and centrifuged for 5 minutes at 1000 rpm. The supernatant was discarded, and the cells were resuspended in new cell culture medium. THP-1 cells were then split and cultured in the cell culture medium, being passaged every 2-3 days with the cell density will be maintained between 5×10^5 and 1.5×10^6 viable cells/mL.
To freeze, cells were resuspended with fresh freezing medium, adjusting the cell density to 5×10^6 cells/mL. The cell suspension was partitioned into 1 mL aliquots per vial, and the vials were transferred to a −80° C. freezer. After one day at −80° C., the cell vials were transferred to liquid nitrogen freezer for storage.
PMA was dissolved in DMSO to make a stock solution at 5 mg/mL and stored in 10 μl aliquots at −20° C. for single use. PMA is added to normal growth medium. LPS was diluted with 1 mL of water solution to provide a 1 mg/mL stock solution and stored in 15 μl aliquots at −20° C. for single use. Nigericin is diluted in ice cold 100% ethanol to 5 mg/mL (6.7 mM) and stored in 75 μL aliquots at −20° C. for single use. Serum-free media contains RPMI 1640 medium (99%), Pen/Strep (1%), and 2-mercaptoethanol (0.05 mM). The two control conditions used to qualify and normalize test compound dose-response curves were as follows: High Control=25 ng/mL LPS, 5 μM Nigericin, 0.5% DMSO, Low Control=25 ng/mL, LPS, 0.5% DMSO.
THP-1 cells were diluted to provide a suspension at a concentration of 1.0×10^6 cells/mL with the total volume of suspension required to enable the desired number of assay plates. The growth media was supplemented with PMA (5 ng/mL final concentration) and the cells were incubated at 37° C. under a humidified atmosphere of 5% CO2 for 40 h.
All media was carefully aspirated from each culture flask. The cells were washed carefully with 1×DPBS. The cells were then briefly digested with trypsin LE for 5 minutes at 23° C., and immediately resuspended in cell growth media. After resuspension, the cells were centrifuged at 1000 rpm for 3 minutes and the supernatant was discarded. The cells were resuspended in DPBS and once again centrifuged at 1000 rpm for 5 minutes. The supernatant was discarded and the cell pellet was resuspended in serum-free media supplemented with LPS (25 ng/mL final concentration) to enable the distribution of 30K THP-1 cells within 45 μL of media into each well of 384-well PDL-coated plates. The 384-well plates were then incubated at 37° C. under a humidified atmosphere of 5% CO2 for 2 h. Following this period, test compounds were dispensed by Tecan across the desired concentration range with all wells normalized to a final 0.5% DMSO concentration. The plates were then incubated at 37° C. under a humidified atmosphere of 5% CO2 for 1 h. Following this period, 5 μL of the […] was added to each of the appropriate wells and plates were centrifuged at 1000 rpm for 30 seconds. The plates were the immediately reintroduced to the incubator at 37° C. under a humidified atmosphere of 5% CO2 for 2 h. After this time, 35 μL/well of supernatant was collected and transferred into v-bottom plate and centrifuged at 1000 rpm for 1 minute. These supernatant aliquots were analyzed using an IL-Iβ detection kit as described below. If needed, the test samples could be snap frozen and stored at −80° C. until analyzed.
To prepare each ELISA plate, capture antibody (mAb Mt175) was diluted with PBS to a final concentration of 2 μg/mL and then 20 μL of this solution was added to each well of the ELISA plate. Each plate was allowed to incubate overnight at 4° C.

[1] = Homo sapiens, THP-1, IL-1β secretion, PMA-differentiated THP-1 cells, LPS then nigericin stimulation, ELISA read at 450 nm, read-out: Activity
[2] = Table 4, IL-1β secretion, LPS/nigericin-stimulated THP-1 cells, read-out: IC50
[3] = IL-1β secretion, PMA-differentiated THP-1 cells, LPS then nigericin stimulation, ELISA read at 450 nm, read-out: Activity

Compound | IC50 [1] [µM] | IC50 [2] [µM] | IC50 [3] [µM]
C[C@@H]1[C@H](F)[C@]12CN(CC(=O)Nc1ncc(F)cn1)C(=O)c1ccc(Br)cc12 (single isomer, unassigned) [Example 277, 2-[(2′s,3′s,4r)-6-bromo-2′-fluoro-3′-methyl-1-oxospiro[3H-isoquinoline-4,1′-cyclopropane]-2-yl]-N-(5-fluoropyrimidin-2-yl)acetamide] | < 10 | 0.021 | 
C[C@@H]1[C@H](F)[C@]12CN(CC(=O)Nc1ncc(F)cn1)C(=O)c1ccc(Br)cc12 (single isomer, unassigned) [Example 278, 2-[(2′s,3′s,4r)-6-bromo-2′-fluoro-3′-methyl-1-oxospiro[3H-isoquinoline-4,1′-cyclopropane]-2-yl]-N-(5-fluoropyrimidin-2-yl)acetamide] |  | 1.79 | < 10
C[C@H]1C[C@]12CN(CC(=O)Nc1ncc(F)cn1)C(=O)c1ccc(Br)cc12 (single isomer, unassigned) [Example 279, 2-[(2′s,4s)-6-bromo-2′-methyl-1-oxospiro[3H-isoquinoline-4,1′-cyclopropane]-2-yl]-N-(5-fluoropyrimidin-2-yl)acetamide] | > 15 | 22.4 | 
C[C@H]1C[C@]12CN(CC(=O)Nc1ncc(F)cn1)C(=O)c1ccc(Br)cc12 (single isomer, unassigned) [Example 280, 2-[(2′s,4s)-6-bromo-2′-methyl-1-oxospiro[3H-isoquinoline-4,1′-cyclopropane]-2-yl]-N-(5-fluoropyrimidin-2-yl)acetamide] |  | 2.37 | < 10
C[C@H]1C[C@@]12CN(CC(=O)Nc1ncc(F)cn1)C(=O)c1ccc(Br)cc12 (single isomer, unassigned) [Example 281, 2-[(2′s,4r)-6-bromo-2′-methyl-1-oxospiro[3H-isoquinoline-4,1′-cyclopropane]-2-yl]-N-(5-fluoropyrimidin-2-yl)acetamide] | < 10 | 0.108 | 
C[C@H]1C[C@@]12CN(CC(=O)Nc1ncc(F)cn1)C(=O)c1ccc(Br)cc12 (single isomer, unassigned) [Example 282, 2-[(2′s,4r)-6-bromo-2′-methyl-1-oxospiro[3H-isoquinoline-4,1′-cyclopropane]-2-yl]-N-(5-fluoropyrimidin-2-yl)acetamide] |  | 1.05 | < 10
O=C(CN1C[C@@]2(C[C@@H]2Cl)c2cc(Br)ccc2C1=O)Nc1ncc(F)cn1 (single isomer, unassigned) [Example 283, 2-[(2′r,4s)-6-bromo-2′-chloro-1-oxospiro[3H-isoquinoline-4,1′-cyclopropane]-2-yl]-N-(5-fluoropyrimidin-2-yl)acetamide] | < 10 | 0.101 | 
O=C(CN1C[C@@]2(C[C@@H]2Cl)c2cc(Br)ccc2C1=O)Nc1ncc(F)cn1 (single isomer, unassigned) [Example 284, 2-[(2′r,4s)-6-bromo-2′-chloro-1-oxospiro[3H-isoquinoline-4,1′-cyclopropane]-2-yl]-N-(5-fluoropyrimidin-2-yl)acetamide] |  | 0.05 | < 10
N#C[C@H]1C[C@@]12CN(CC(=O)Nc1ncc(F)cn1)C(=O)c1ccc(Br)cc12 (single isomer, unassigned) [Example 286, 2-[(2′s,4r)-6-bromo-2′-cyano-1-oxospiro[3H-isoquinoline-4,1′-cyclopropane]-2-yl]-N-(5-fluoropyrimidin-2-yl)acetamide] | < 10 | 1.95 | 
N#C[C@H]1C[C@@]12CN(CC(=O)Nc1ncc(F)cn1)C(=O)c1ccc(Br)cc12 (single isomer, unassigned) [Example 287, 2-[(2′s,4r)-6-bromo-2′-cyano-1-oxospiro[3H-isoquinoline-4,1′-cyclopropane]-2-yl]-N-(5-fluoropyrimidin-2-yl)acetamide] |  | 0.251 | < 10
O=C(CN1CC2(CC2(F)F)c2c(ccc(Br)c2F)C1=O)Nc1ncc(F)cn1 (single isomer, unassigned) [Example 288, N-(5-fluoropyrimidin-2-yl)-2-[6-bromo-1′,1′,5-trifluoro-1-oxospiro[3H-isoquinoline-4,2′-cyclopropane]-2-yl]acetamide] | 10 to 15 | 15.4 | 
O=C(CN1CC2(CC2(F)F)c2c(ccc(Br)c2F)C1=O)Nc1ncc(F)cn1 (single isomer, unassigned) [Example 289, N-(5-fluoropyrimidin-2-yl)-2-[6-bromo-1′,1′,5-trifluoro-1-oxospiro[3H-isoquinoline-4,2′-cyclopropane]-2-yl]acetamide] |  | 0.027 | < 10
O=C(CN1CC2(CC2(F)F)c2cc(Br)ccc2C1=O)Nc1ncc(F)cn1 (single isomer, unassigned) [Example 290, 2-[6-bromo-1′,1′-difluoro-1-oxospiro[3H-isoquinoline-4,2′-cyclopropane]-2-yl]-N-(5-fluoropyrimidin-2-yl)acetamide] | < 10 | 3.73 | 
O=C(CN1CC2(CC2(F)F)c2cc(Br)ccc2C1=O)Nc1ncc(F)cn1 (single isomer, unassigned) [Example 291, 2-[6-bromo-1′,1′-difluoro-1-oxospiro[3H-isoquinoline-4,2′-cyclopropane]-2-yl]-N-(5-fluoropyrimidin-2-yl)acetamide] |  | 0.037 | < 10
O=C(CN1CC(CF)c2cc(Br)ccc2C1=O)Nc1ncc(F)cn1 (single isomer, unassigned) [Example 292, 2-[6-bromo-4-(fluoromethyl)-1-oxo-3,4-dihydroisoquinolin-2-yl]-N-(5-fluoropyrimidin-2-yl)acetamide] | < 10 | 3.94 | 
O=C(CN1CC(CF)c2cc(Br)ccc2C1=O)Nc1ncc(F)cn1 (single isomer, unassigned) [Example 293, 2-[6-bromo-4-(fluoromethyl)-1-oxo-3,4-dihydroisoquinolin-2-yl]-N-(5-fluoropyrimidin-2-yl)acetamide] |  | 0.134 | < 10
O=C(CN1CC(C(F)F)c2c(ccc(Br)c2F)C1=O)Nc1ncc(F)cn1 (single isomer, unassigned) [Example 295, 2-[6-bromo-4-(difluoromethyl)-5-fluoro-1-oxo-3,4-dihydroisoquinolin-2-yl]-N-(5-fluoropyrimidin-2-yl)acetamide] | 10 to 15 | 12.8 | 
O=C(CN1CC(C(F)F)c2c(ccc(Br)c2F)C1=O)Nc1ncc(F)cn1 (single isomer, unassigned) [Example 296, 2-[6-bromo-4-(difluoromethyl)-5-fluoro-1-oxo-3,4-dihydroisoquinolin-2-yl]-N-(5-fluoropyrimidin-2-yl)acetamide] |  | 0.345 | < 10
O=C(CN1CC(C(F)(F)F)c2c(ccc(Br)c2F)C1=O)Nc1ncc(F)cn1 (single isomer, unassigned) [Example 297, 2-[6-bromo-5-fluoro-1-oxo-4-(trifluoromethyl)-3,4-dihydroisoquinolin-2-yl]-N-(5-fluoropyrimidin-2-yl)acetamide] | 10 to 15 | 14.4 | 
O=C(CN1CC(C(F)(F)F)c2c(ccc(Br)c2F)C1=O)Nc1ncc(F)cn1 (single isomer, unassigned) [Example 298, 2-[6-bromo-5-fluoro-1-oxo-4-(trifluoromethyl)-3,4-dihydroisoquinolin-2-yl]-N-(5-fluoropyrimidin-2-yl)acetamide] |  | 0.367 | < 10
